Laboratory results published in patent publication US20130039928A1, “COMPOSITIONS AND METHODS FOR REVERSING CORTICOSTEROID RESISTANCE OR TREATING RESPIRATORY INFECTIONS” (priority 2010, published 2013).
Read-outs that look alike come from different tables or passages of the source.

Key:
MARCO = test system: MARCO
Experimental: (§1) Human alveolar macrophages were purified from individual BAL samples by centrifugation and seeded onto 6-well tissue culture plates. After incubation for 2 h, non-adherent cells were removed and the adherent cells were incubated with R, S-sulforaphane (5 μM; LKT Laboratories, Inc., St. Paul, Minn.) and or DMSO in RPMI 1640 culture medium with 10% FBS and 1% penicillin-streptomycin (Invitrogen, Carlsbad, Calif.). After 16-20 h, adherent cells were scraped, suspended in RPMI 1640 culture media and plated onto 96-well tissue culture plates for bacterial phagocytosis and clearance assays. […] For MARCO antibody-depletion, alveolar macrophages were incubated with human anti-MARCO antibody (1 μg/ml; (Hycult, Uden, The Netherlands) for 4 hours prior to bacterial challenge.
(§2) GAPDH was used for normalization.

Nrf2 = settings: COPD alveolar macrophages
Experimental: as §1, §2

[1] = test system: nontypeable Haemophilus influenzae
Experimental: as §1, with “challenge. […]” for “challenge.”
After treatment, macrophages (10^5 cells) were incubated with bacteria (PA or NTHI) for 4 h. […] The number of bacterial colonies was counted after 24 h.

[2] = test system: CD80/86, MHC-11, CD14 and CD206; settings: FACS
Experimental: To examine the contribution of MARCO in mediating bacterial phagocytosis by alveolar macrophages following sulforaphane treatment, an antibody-depletion approach was employed. The specificity of anti-MARCO antibody was validated by immunoblot analysis (FIG. 12). […] To assess the effect of sulforaphane on the phenotype of macrophages, CD80/86, MHC-11, CD14 and CD206 were analyzed by FACS.

Pseudomonas aeruginosa = settings: 0.5 mg/mouse/day nebulizer, three days, 4 hours after PA, compared to vehicle
Experimental: The efficacy of sulforaphane to improve bacterial phagocytosis and clearance in the lungs of mice exposed to cigarette smoke was determined. After 6 months or 1 week of CS or air exposure, mice were treated with sulforaphane and or vehicle (0.5 mg/mouse/day) for three consecutive days using an Aeroneb® nebulizer (Aerogen, Inc., Galway, Ireland). Mice were challenged intranasally with Pseudomonas aeruginosa 24 hours after the last dose of sulforaphane, and bacterial burden in BALF was analyzed 4 hours later.
C57BL/6J mice were housed under controlled conditions for temperature and humidity, using a 12-hour light/dark cycle. At 8 weeks of age, mice were exposed to CS for (2.5 h/day for 5 days/week) for 1 week or 6 months using a machine that produces cigarette smoke (TE-10, Teague Enterprises) and reference cigarettes (2R4F) with a total suspended particle concentration of 250 mg/m^3 as previously described (T. E. Sussan et al., Proc Natl Acad Sci USA, (Dec. 22, 2008)). Following exposure to CS, mice were inoculated with PA or NTHI at a dose of 10^3 CFU in 50 μl of PBS intranasally. […]
BAL fluid analysis and cell counts with differential staining were carried out as described previously (T. Rangasamy et al., J Clin Invest 114, 1248 (November, 2004)). […] After 24 h, the number of CFU was counted.

HDAC2 = test system: HDAC2
Experimental: Whether sulforaphane increase HDAC2 activity in lungs of cigarette smoke exposed mice was determined.
Mice (C57BL/6 strain, 8-10 weeks old) were used for the studies. Exposure to CS (1 month) was carried out as described previously (Malhotra, D., et al., Am J Respir Crit Care Med 178, 592-604 (2008)). Residential peritoneal macrophages (PMs) isolation was carried out as described previously (Singh, A., et al., PLoS Med 3, e420 (2006)). Alveolar macrophages from mouse were isolated from bronchoalveolar lavage (BAL) fluid (Crimi, E., et al., Free Radic Biol Med 40, 398-406 (2006)).
HDAC activity was measured using a fluorescent derivative of ε-acetyl-lysine from Enzo life sciences (Farmingdale, N.Y.) according to the manufacturer's recommendations. HDAC2 was immunoprecipitated for analysis of enzymatic activity.

Q: What does the source list for `C[S+]([O-])CCCCN=C=S` (stereo not drawn) [sulforaphane]?
A: surface expression of MARCO protein (MARCO; COPD alveolar macrophages, flow cytometry, compared to vehicle, p<0.001): 2- to 5 fold; expression of MARCO mRNA (MARCO; alveolar macrophages transfected with Nrf2-siRNA, compared to control ssRNA): failed to upregulate the expression of MARCO mRNA; Nrf2-regulated target genes (NQO1 & GPX2) mRNA (Nrf2): upregulation of Nrf2-regulated targets genes; Nrf2 protein levels (Nrf2; flow cytometry, vs vehicle): elevated levels of Nrf2 protein; clearance of nontypeable Haemophilus influenzae (decrease in CFU in culture medium) ([1]; COPD alveolar macrophages, compared to vehicle, 4 h with bacteria): 40-95%; bactericidal activity towards nontypeable Haemophilus influenzae ([1]; cell-free medium with sulforaphane alone): no bactericidal activity; expression of other markers (MHC-11, CD14) [2]: no significant difference; expression of receptors CD80/86 and CD206 [2]: Moderate suppression; bacterial burden in lungs (Pseudomonas aeruginosa; 1 week CS): significantly reduced bacterial burden; bacterial burden in lungs (Pseudomonas aeruginosa; 6 months CS): significantly reduced bacterial burden; levels of SNO-HDAC2 in lungs (HDAC2; CS-exposed mice): reduced the levels of SNO-HDAC2; GSH levels in lungs (HDAC2; cigarette smoke-exposed mice): increased GSH levels; HDAC2 enzymatic activity in lungs (HDAC2; cigarette smoke-exposed mice): significant increase; HDAC2 protein in lungs (HDAC2; cigarette smoke-exposed mice): significant increase; total HDAC enzymatic activity in lungs (HDAC2; cigarette smoke-exposed mice): significant increase
